Data published in patent US20250145625A1, “PYRAZOLOPYRIMIDINE DERIVATIVE AND ANTICANCER PHARMACEUTICAL COMPOSITION CONTAINING SAME AS ACTIVE INGREDIENT” (KOREA RESEARCH INSTITUTE OF CHEMICAL TECHNOLOGY, priority 2021, published 2025).

Legend:
[1] = tested on: MDA-MB-231 triple negative breast cancer cell line; assay: Cell cycle distribution of co-treatment with paclitaxel in MDA-MB-231 cells; assay type: cell-based; conditions: co-treated with 0.001 μM paclitaxel
Method: To determine the change in cell cycle distribution when a compound represented by Chemical Formula 1 according to the present invention and paclitaxel were co-applied to MDA-MB-231 cells, the following test was conducted.
MDA-MB-231 triple negative breast cancer cell line purchased from ATCC was inoculated into each well of a 6-well plate at 100,000 cells. Thereafter, paclitaxel was added at concentrations of 0 μM and 0.001 μM and an example compound of the present invention was added at concentrations of 0 μM, 0.03 μM, or 0.1 μM, and the cells were cultured in a cell incubator at 37° C. for 2 days. After 2 days, the cells were fixed with 70% ethanol, and added and into 200 μL of Muse Cell Cycle reagent in a light-shielded state and cultured for 30 minutes. Then, the cell cycle distribution was analyzed using a Muse Cell Analyzer (manufacturer: Merck, Millipore), and the results are shown in FIG. 6.

[2] = tested on: HCT116 colon cancer cell line; assay: Cytotoxicity in TTK-expressed HCT116 cells; assay type: cell-based; conditions: Homo sapiens, HCT-116, 120 h, 5 days
Method: To determine the cytotoxicity of a compound represented by Chemical Formula 1 according to the present invention to HCT116 cells, the following test was conducted.
HCT116 colon cancer cell line purchased from ATCC was inoculated into each well of a 96-well plate at a volume of 90 μL containing 2,000 cells. Thereafter, an example compound of the present invention was added to respective wells at concentrations of […], 3 μM, 1 μM, 0.3 μM, 0.1 μM, and 0 μM, and the cells were cultured in a cell incubator at 37° C. for 5 days. After 5 days, the number of cells was measured by CCK8 test method, and the cytotoxicity was determined by calculating the IC50 value for cytotoxicity of each compound.

[3] = tested on: MDA-MB-231 tumor in nude mice; assay: Drug efficacy on nude mice employing MDA-MB-231; assay type: in vivo; conditions: MDA-MB-231, oral 6 mg/kg daily for 4 weeks
Method: 5-Week-old female nude mice were subcutaneously injected with 5×10^6 MDA-MB-231 cells into the flank. When the tumor volume reached approximately 50 mm^3, the mice were divided into groups, each containing 5 animals, which were than orally administered a drug. The dosage of the drug was 6 mg/kg and administered daily for 4 weeks.

[4] = tested on: MDA-MB-231 triple negative breast cancer cell line; assay: Cytotoxicity in TTK-expressed MDA-MB-231 cells; assay type: cell-based; conditions: Homo sapiens, MDA-MB-231, 120 h, 5 days
Method: To determine the cytotoxicity of a compound represented by Chemical Formula 1 according to the present invention to MDA-MB-231 cells, the following test was conducted.
MDA-MB-231 triple negative breast cancer cell line purchased from ATCC was inoculated into each well of a 96-well plate at a volume of 90 μL containing 2,000 cells. Thereafter, an example compound of the present invention was added to respective wells at concentrations of 10 μM, 3 μM, 1 μM, 0.3 μM, 0.1 μM, and 0 μM, and the cells were cultured in a cell incubator at 37° C. for 5 days. Five days later, 10 μL of Cyto X solution (manufacturer: LPS Solution) was added to each of the wells, and the absorbance was measured at 450 nm using an Epoch microplate spectrophotometer (manufacturer: BioTek Instruments Inc.) according to the product's user guide. For cytotoxicity, the IC50 value for cytotoxicity of each compound was calculated by quantifying the number of cells using the measured value.

[5] = molecular target: LTK(h) (Homo sapiens (Human), UniProt P29376); assay: Kinase activity inhibitory ability (panel); assay type: biochemical; conditions: compound at 500 nM
Sequence of LTK(h) (P29376 17-864): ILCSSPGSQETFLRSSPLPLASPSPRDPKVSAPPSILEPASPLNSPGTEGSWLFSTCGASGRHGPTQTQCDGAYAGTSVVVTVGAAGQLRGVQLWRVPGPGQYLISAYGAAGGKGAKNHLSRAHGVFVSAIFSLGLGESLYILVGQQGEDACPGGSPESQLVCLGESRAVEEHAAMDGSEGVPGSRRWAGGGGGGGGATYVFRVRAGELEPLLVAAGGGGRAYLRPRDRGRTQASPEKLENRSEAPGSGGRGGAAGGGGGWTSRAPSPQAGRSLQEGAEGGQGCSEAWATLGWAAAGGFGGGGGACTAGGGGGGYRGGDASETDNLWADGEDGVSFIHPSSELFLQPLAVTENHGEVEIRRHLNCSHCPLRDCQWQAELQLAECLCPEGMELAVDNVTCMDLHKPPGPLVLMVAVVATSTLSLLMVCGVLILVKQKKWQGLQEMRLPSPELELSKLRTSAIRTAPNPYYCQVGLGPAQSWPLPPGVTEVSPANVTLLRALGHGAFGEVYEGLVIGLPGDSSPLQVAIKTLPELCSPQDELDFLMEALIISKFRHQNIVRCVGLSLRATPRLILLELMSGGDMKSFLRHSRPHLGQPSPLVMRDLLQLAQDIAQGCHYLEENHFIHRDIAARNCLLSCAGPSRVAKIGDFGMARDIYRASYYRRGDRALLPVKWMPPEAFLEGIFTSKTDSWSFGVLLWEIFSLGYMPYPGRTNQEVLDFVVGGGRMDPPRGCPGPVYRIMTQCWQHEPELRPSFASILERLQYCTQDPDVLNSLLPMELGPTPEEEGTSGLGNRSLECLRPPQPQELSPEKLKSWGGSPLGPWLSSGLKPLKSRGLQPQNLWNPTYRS

[6] = molecular target: recombinant human TTK protein (Homo sapiens (Human), UniProt P33981); assay: Evaluation of TTK activity inhibitory ability (scintillation counting); assay type: biochemical;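 also: reaction stopped with 0.5% phosphoric acid, spotted on P30 filter, TTK activity counted by scintillation, uninhibited no-compound wells taken as 100% control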
Sequence of recombinant human TTK protein (P33981 whole entry): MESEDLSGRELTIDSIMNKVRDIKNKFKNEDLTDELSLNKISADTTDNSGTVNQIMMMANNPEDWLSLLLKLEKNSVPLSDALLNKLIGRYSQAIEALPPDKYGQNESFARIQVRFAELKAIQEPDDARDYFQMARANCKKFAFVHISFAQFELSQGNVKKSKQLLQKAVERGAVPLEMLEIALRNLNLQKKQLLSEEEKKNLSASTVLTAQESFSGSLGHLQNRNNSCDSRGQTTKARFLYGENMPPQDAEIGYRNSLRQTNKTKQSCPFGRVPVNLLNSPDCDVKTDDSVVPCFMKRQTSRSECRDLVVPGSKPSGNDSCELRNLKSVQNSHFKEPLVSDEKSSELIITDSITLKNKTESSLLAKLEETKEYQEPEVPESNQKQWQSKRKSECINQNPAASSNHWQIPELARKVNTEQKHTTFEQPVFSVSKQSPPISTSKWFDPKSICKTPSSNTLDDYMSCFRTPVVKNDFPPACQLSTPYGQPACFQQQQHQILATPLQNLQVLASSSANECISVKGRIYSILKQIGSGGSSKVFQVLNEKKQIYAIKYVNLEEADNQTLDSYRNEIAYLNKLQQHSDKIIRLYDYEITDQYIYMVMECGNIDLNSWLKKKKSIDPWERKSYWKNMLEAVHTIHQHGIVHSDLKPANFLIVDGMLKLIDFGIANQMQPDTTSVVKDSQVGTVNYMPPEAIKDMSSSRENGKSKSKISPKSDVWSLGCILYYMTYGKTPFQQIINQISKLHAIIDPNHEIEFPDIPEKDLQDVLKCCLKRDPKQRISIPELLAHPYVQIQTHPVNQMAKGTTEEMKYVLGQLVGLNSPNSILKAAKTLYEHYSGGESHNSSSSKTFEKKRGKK
Method: To determine the ability of a compound represented by Chemical Formula 1 according to the present invention to inhibit TTK activity, the following experiment was conducted.
After that, the reaction was terminated by adding phosphoric acid to a concentration of 0.5%, and 10 of the reaction solution was dropped onto a P30 filter. […] The activity of TTK was measured through scintillation counting. The activity value from the group with no compound was set as 100% of control, and the degree of TTK inhibition by the compound was calculated.

[7] = molecular target: IR(h), activated (Homo sapiens (Human), UniProt P06213); assay: Kinase activity inhibitory ability (panel); assay type: biochemical; conditions: compound at 500 nM
Sequence of IR(h), activated (P06213 28-1382): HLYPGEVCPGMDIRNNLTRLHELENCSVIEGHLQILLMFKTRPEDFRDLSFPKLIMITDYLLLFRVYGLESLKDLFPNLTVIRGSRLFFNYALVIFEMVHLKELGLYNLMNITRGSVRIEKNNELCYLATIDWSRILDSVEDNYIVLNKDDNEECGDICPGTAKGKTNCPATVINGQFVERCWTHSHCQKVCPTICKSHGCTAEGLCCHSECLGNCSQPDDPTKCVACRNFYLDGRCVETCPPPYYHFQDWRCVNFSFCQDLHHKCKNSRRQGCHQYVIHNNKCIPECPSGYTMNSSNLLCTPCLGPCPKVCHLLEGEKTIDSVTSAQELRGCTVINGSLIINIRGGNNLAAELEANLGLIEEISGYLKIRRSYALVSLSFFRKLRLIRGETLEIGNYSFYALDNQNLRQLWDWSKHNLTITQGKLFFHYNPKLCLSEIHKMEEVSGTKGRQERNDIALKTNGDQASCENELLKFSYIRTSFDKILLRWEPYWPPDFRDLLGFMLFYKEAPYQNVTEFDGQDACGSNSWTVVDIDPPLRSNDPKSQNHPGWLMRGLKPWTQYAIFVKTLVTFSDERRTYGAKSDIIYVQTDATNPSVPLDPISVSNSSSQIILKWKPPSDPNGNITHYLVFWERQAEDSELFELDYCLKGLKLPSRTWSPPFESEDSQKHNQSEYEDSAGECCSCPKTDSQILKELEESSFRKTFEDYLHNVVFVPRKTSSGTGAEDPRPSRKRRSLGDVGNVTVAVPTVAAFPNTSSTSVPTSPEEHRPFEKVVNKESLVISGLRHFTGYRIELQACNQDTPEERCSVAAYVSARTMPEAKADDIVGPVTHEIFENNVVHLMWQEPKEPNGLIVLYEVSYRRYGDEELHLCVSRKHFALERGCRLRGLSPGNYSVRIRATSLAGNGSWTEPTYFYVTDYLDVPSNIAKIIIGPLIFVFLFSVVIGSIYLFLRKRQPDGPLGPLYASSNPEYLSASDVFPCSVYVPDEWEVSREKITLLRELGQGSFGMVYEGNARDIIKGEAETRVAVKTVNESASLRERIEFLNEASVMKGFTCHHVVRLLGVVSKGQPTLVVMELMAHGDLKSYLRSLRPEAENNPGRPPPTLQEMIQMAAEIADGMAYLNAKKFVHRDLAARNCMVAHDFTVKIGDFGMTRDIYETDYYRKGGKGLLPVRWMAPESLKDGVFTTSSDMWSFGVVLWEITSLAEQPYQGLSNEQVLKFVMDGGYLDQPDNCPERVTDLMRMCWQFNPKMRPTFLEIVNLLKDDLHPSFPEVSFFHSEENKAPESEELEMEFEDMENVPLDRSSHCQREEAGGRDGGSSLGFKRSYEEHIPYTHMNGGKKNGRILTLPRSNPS

[8] = molecular target: TTK(h) (Homo sapiens (Human), UniProt P33981); assay: Kinase activity inhibitory ability (panel); assay type: biochemical
Sequence of TTK(h) (P33981 whole entry): as the sequence (P33981 whole entry) above

[9] = molecular target: IRR(h) (Homo sapiens (Human), UniProt P14616); assay: Kinase activity inhibitory ability (panel); assay type: biochemical; conditions: compound at 500 nM
Sequence of IRR(h) (P14616 27-1297): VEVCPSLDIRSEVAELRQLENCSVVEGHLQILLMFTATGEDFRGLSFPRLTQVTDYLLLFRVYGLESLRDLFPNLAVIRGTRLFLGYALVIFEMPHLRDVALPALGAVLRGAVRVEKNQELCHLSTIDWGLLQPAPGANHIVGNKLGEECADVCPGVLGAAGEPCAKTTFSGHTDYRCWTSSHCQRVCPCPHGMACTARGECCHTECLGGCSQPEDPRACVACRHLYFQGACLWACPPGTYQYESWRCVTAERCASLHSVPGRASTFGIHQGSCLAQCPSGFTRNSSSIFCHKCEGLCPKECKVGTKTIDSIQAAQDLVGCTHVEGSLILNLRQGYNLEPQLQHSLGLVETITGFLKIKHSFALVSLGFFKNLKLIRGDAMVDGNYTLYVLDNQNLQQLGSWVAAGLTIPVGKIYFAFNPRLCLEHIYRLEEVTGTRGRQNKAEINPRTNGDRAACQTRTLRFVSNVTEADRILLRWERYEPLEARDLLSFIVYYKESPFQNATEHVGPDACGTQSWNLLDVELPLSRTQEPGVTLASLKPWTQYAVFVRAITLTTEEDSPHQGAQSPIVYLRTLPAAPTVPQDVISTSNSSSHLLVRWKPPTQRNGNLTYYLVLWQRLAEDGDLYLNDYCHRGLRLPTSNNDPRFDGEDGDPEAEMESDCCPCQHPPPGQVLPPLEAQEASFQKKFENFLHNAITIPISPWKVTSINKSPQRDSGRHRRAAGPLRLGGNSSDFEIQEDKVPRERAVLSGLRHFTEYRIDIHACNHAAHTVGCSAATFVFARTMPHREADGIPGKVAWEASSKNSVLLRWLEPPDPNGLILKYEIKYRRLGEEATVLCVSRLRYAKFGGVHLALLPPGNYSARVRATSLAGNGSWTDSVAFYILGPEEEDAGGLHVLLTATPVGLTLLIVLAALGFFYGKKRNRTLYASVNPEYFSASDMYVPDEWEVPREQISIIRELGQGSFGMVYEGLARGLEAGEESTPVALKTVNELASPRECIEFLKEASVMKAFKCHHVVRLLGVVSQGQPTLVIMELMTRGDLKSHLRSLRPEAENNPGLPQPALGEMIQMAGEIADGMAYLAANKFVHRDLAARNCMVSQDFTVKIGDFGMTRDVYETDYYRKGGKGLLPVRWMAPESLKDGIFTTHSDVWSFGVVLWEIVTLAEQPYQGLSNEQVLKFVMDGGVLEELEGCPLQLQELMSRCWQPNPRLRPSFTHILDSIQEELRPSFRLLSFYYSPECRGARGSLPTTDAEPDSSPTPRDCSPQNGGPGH

[10] = molecular target: ALK(h) (Homo sapiens (Human), UniProt Q9UM73); assay: Kinase activity inhibitory ability (panel); assay type: biochemical; conditions: compound at 500 nM

| Structure (SMILES) | change in cell distribution on co-treatment [1] | IC50 [2] [nM] | tumor volume over time [3] | IC50 [4] [nM] | activity at 0.5 µM [5] [%] | inhibition at 0.5 µM [5] [%] | IC50 [6] [nM] | activity at 0.5 µM [7] [%] | inhibition at 0.5 µM [7] [%] | TTK activity inhibition (in words) ([8]; 500 nM) | activity at 0.5 µM ([8]; TTK(h), compound at 500 nM) [%] | inhibition at 0.5 µM ([8]; TTK(h), compound at 500 nM) [%] | activity at 0.5 µM [9] [%] | inhibition at 0.5 µM [9] [%] | activity at 0.5 µM [10] [%] | inhibition at 0.5 µM [10] [%] |
| --- | --- | --- | --- | --- | --- | --- | --- | --- | --- | --- | --- | --- | --- | --- | --- | --- |
| Cc1cc(-c2cnn3c(NC[C@H]4C[C@@](C)(O)C4)cc(Oc4cccnc4)nc23)ccc1C(=O)NC1CC1 [Comparative Example 1, CFI-402257, reference compound] | enhanced changes in cell distribution | < 150 | reduced | < 150 | – | – | – | – | – | – | – | – | – | – | – | – |
| COc1ccc(Cn2nc(-c3cn[nH]c3)c3c(NC4CCCCC4)nc(Nc4ccc(N5CCOCC5)cc4OC)nc32)cc1 [Compound 8-8, N^4-cyclohexyl-N^6-(2-methoxy-4-morpholinophenyl)-1-(4-methoxybenzyl)-3-(1H-pyrazol-4-yl)-1H-pyrazolo[3,4-d]pyrimidine-4,6-diamine] | – | < 150 | – | < 150 | 2 | > 90 | 30 to 100 | 8 | > 90 | completely inhibited TTK activity | -7 | > 90 | 7 | > 90 | 2 | > 90 |
